{"source": "patent US10988496B2", "about": "“Platinum (IV) complex” (Nippon Kayaku Kabushiki Kaisha, priority 2015, dated 2021)", "format_in_all_cases": "cell-based", "key": {"[1]": {"system": "gastric cancer cells KATO III", "assay": "In vitro antitumor assay (Methylene Blue staining), KATO III", "conditions": "72 hours culture with compound; read-out: Cell line IC50 KATO III", "excerpt": "(§1) Gastric cancer and pancreatic cancer cell lines were respectively inoculated on a 96-well plate. Gastric cancer cells KATO III were inoculated at a rate of 1×10^4 cells/well gastric cancer cells MKN-1 were inoculated at a rate of 5×10^5 cells/well, gastric cancer cells MKN-45 were inoculated at a rate of 1×10^4 cells/well, gastric cancer cells MKN-74 were inoculated at a rate of 1×10^4 cells/well, pancreatic cancer cells AsPC-1 were inoculated at a rate of […], pancreatic cancer cells BxPC-3 were inoculated at a rate of 5×10^5 cells/well, pancreatic cancer cells DAN-G were inoculated at a rate of 5×10^5 cells/well, and pancreatic cancer cells SUIT-2 were inoculated at a rate of 5×10^5 cells/well. After culturing the cells for 24 hours, each of the Example compounds or each of the Comparative Example compounds was added to the cells to obtain a final concentration of from 0.0244 μmol/L to 100 μmol/L at a common ratio of 4. Three technical replicates were used. Wells to which no drug was added were prepared as control, and wells to which cells and drugs were not added were prepared as blanks. After the cells were cultured for 72 hours, the culture fluid was removed, the cells were fixed with methanol, and then the cells were stained using a Methylene Blue stain solution. After excess Methylene blue stain solution was washed off, 200 μL of 0.1% hydrochloric acid was added to each well, and the dye was extracted. The light absorbance at 660 nm was measured using a microplate reader, and the cell proliferation inhibitory activity (GI %) was calculated from the light absorbance thus obtained by the following formula. GIXY %=(1−(AXY−B)/(C−B))×100\n(§2) Here, GIXY % represents the cell prolj feration-inhibitory activity when the concentration of compound. X is Y μM; AXY represents the average light absorbance of the well to which compound X has been added at Y μM; B represents the light absorbance of a blank well; and C represents the tight absorbance of a control well.\n(§3) The GIXY % was determined for various compound concentrations, and a proliferation-inhibition curve was plotted from the concentration and the cell proliferation-inhibitory activity."}, "[2]": {"system": "gastric cancer cells MKN-1", "assay": "In vitro antitumor assay (Methylene Blue staining), MKN-1", "conditions": "72 hours culture with compound; read-out: Cell line IC50 MKN-1", "excerpt": "as §1, §2, §3"}, "[3]": {"system": "gastric cancer cells MKN-45", "assay": "In vitro antitumor assay (Methylene Blue staining), MKN-45", "conditions": "72 hours culture with compound; read-out: Cell line IC50 MKN-45", "excerpt": "as §1, §2, §3"}, "[4]": {"system": "gastric cancer cells MKN-74", "assay": "In vitro antitumor assay (Methylene Blue staining), MKN-74", "conditions": "72 hours culture with compound; read-out: Cell line IC50 MKN-74", "excerpt": "as §1, §2, §3"}, "[5]": {"system": "pancreatic cancer cells BxPC-3", "assay": "In vitro antitumor assay (Methylene Blue staining), BxPC-3", "conditions": "72 hours culture with compound; read-out: Cell line IC50 BxPC-3", "excerpt": "as §1, §2, §3"}, "[6]": {"system": "pancreatic cancer cells DAN-G", "assay": "In vitro antitumor assay (Methylene Blue staining), DAN-G", "conditions": "72 hours culture with compound; read-out: Cell line IC50 DAN-G", "excerpt": "as §1, §2, §3"}, "[7]": {"system": "pancreatic cancer cells AsPC-1", "assay": "In vitro antitumor assay (Methylene Blue staining), AsPC-1", "conditions": "72 hours culture with compound; read-out: Cell line IC50 AsPC-1", "excerpt": "as §1, §2, §3"}, "[8]": {"system": "pancreatic cancer cells SUIT-2", "assay": "In vitro antitumor assay (Methylene Blue staining), SUIT-2", "conditions": "72 hours culture with compound; read-out: Cell line IC50 SUIT-2", "excerpt": "as §1, §2, §3"}}, "data": [{"smiles": "N[C@@H]1CCCC[C@H]1N.O=C([O-])C(=O)[O-].[Pt+2]", "note": "[Example 1-OHP, oxaliplatin]", "values": [{"measurement": "IC50", "setting": "[1]", "value": 9.2, "unit": "µM"}, {"measurement": "IC50", "setting": "[2]", "value": 0.5, "unit": "µM"}, {"measurement": "IC50", "setting": "[3]", "value": 0.1, "unit": "µM"}, {"measurement": "IC50", "setting": "[4]", "value": 8.6, "unit": "µM"}, {"measurement": "IC50", "setting": "[5]", "value": 0.8, "unit": "µM"}, {"measurement": "IC50", "setting": "[6]", "value": 1.1, "unit": "µM"}, {"measurement": "IC50", "setting": "[7]", "value": 1.6, "unit": "µM"}]}, {"smiles": "N[C@@H]1CCCC[C@H]1N.O=C1[O][Pt]([OH])([OH])[O]C1=O", "note": "(mixture of isomers) [Comparative Example 3, trans,cis,cis-[Pt(OH)2 (R,R-dach) (ox)]]", "values": [{"measurement": "IC50", "setting": "[2]", "value": "> 100", "unit": "µM"}, {"measurement": "IC50", "setting": "[4]", "value": "> 100", "unit": "µM"}, {"measurement": "IC50", "setting": "[8]", "value": 39.2, "unit": "µM"}, {"measurement": "IC50", "setting": "[6]", "value": "> 100", "unit": "µM"}]}, {"smiles": "N[C@@H]1CCCC[C@H]1N.O=C([O-])C(=O)[O-].[Cl-].[OH-].[Pt+4]", "note": "(mixture of isomers) [Example 1, trans,cis,cis-[PtCl(OH) (R,R-dach) (ox)]]", "values": [{"measurement": "IC50", "setting": "[1]", "value": 13.8, "unit": "µM"}, {"measurement": "IC50", "setting": "[2]", "value": 1.9, "unit": "µM"}, {"measurement": "IC50", "setting": "[3]", "value": 0.3, "unit": "µM"}, {"measurement": "IC50", "setting": "[4]", "value": 16, "unit": "µM"}, {"measurement": "IC50", "setting": "[5]", "value": 1.2, "unit": "µM"}, {"measurement": "IC50", "setting": "[8]", "value": 0.9, "unit": "µM"}, {"measurement": "IC50", "setting": "[6]", "value": 1, "unit": "µM"}, {"measurement": "IC50", "setting": "[7]", "value": 3.1, "unit": "µM"}]}, {"smiles": "CC(=O)[O][Pt]1([OH])[O]C(=O)C(=O)[O]1.N[C@@H]1CCCC[C@H]1N", "note": "(mixture of isomers) [Comparative Example 1, trans,cis,cis-[Pt(OH)(OAc)(R,R-dach) (ox)]]", "values": [{"measurement": "IC50", "setting": "[1]", "value": 55.7, "unit": "µM"}, {"measurement": "IC50", "setting": "[2]", "value": 45.3, "unit": "µM"}, {"measurement": "IC50", "setting": "[3]", "value": 6.2, "unit": "µM"}, {"measurement": "IC50", "setting": "[4]", "value": "> 100", "unit": "µM"}, {"measurement": "IC50", "setting": "[5]", "value": 44.3, "unit": "µM"}, {"measurement": "IC50", "setting": "[8]", "value": 26.1, "unit": "µM"}, {"measurement": "IC50", "setting": "[6]", "value": 36.7, "unit": "µM"}, {"measurement": "IC50", "setting": "[7]", "value": 62.9, "unit": "µM"}]}, {"smiles": "N[C@@H]1CCCC[C@H]1N.O=C(CCc1ccccc1)[O][Pt]1([O]C(=O)CCc2ccccc2)[O]C(=O)C(=O)[O]1", "note": "[Comparative Example 4, trans,cis,cis-[Pt(OCOCH2CH2C6H5)2 (R,R-dach)(ox)]]", "values": [{"measurement": "IC50", "setting": "[2]", "value": 9.2, "unit": "µM"}, {"measurement": "IC50", "setting": "[4]", "value": 27.3, "unit": "µM"}, {"measurement": "IC50", "setting": "[8]", "value": 1, "unit": "µM"}, {"measurement": "IC50", "setting": "[6]", "value": 6.8, "unit": "µM"}]}, {"smiles": "N[C@@H]1CCCC[C@H]1N.O=C1[O][Pt]([OH])([Br])[O]C1=O", "note": "(mixture of isomers) [Example 2, trans,cis,cis-[PtBr(OH) (R,R-dach) (ox)]]", "values": [{"measurement": "IC50", "setting": "[2]", "value": 2.7, "unit": "µM"}, {"measurement": "IC50", "setting": "[8]", "value": 1.5, "unit": "µM"}]}, {"smiles": "N[C@@H]1CCCC[C@H]1N.O=C1[O][Pt]([OH])([Cl])[O]C(=O)C12CCC2", "note": "(mixture of isomers) [Comparative Example 5, trans,cis,cis-[PtCl(OH) (R,R-dach) (cbdc)]]", "values": [{"measurement": "IC50", "setting": "[2]", "value": 4.5, "unit": "µM"}, {"measurement": "IC50", "setting": "[4]", "value": 29, "unit": "µM"}, {"measurement": "IC50", "setting": "[8]", "value": 3.3, "unit": "µM"}, {"measurement": "IC50", "setting": "[6]", "value": 3.4, "unit": "µM"}]}, {"smiles": "N[C@@H]1CCCC[C@H]1N.[OH][Pt]([Cl])([Cl])[Cl]", "note": "(mixture of isomers) [Example 3, trans,cis,cis-[PtCl(OH) (R,R-dach) (Cl)2]]", "values": [{"measurement": "IC50", "setting": "[2]", "value": 2.6, "unit": "µM"}, {"measurement": "IC50", "setting": "[4]", "value": 17.1, "unit": "µM"}, {"measurement": "IC50", "setting": "[8]", "value": 0.9, "unit": "µM"}, {"measurement": "IC50", "setting": "[6]", "value": 8.6, "unit": "µM"}]}, {"smiles": "N[C@@H]1CCCC[C@H]1N.O=C1[O][Pt]([Cl])([O]CCO)[O]C1=O", "note": "(mixture of isomers) [Comparative Example 2, trans,cis,cis-[PtCl (OCH2CH2OH) (R,R-dach) (ox)]]", "values": [{"measurement": "IC50", "setting": "[1]", "value": 42.6, "unit": "µM"}, {"measurement": "IC50", "setting": "[2]", "value": 10.8, "unit": "µM"}, {"measurement": "IC50", "setting": "[3]", "value": 1.9, "unit": "µM"}, {"measurement": "IC50", "setting": "[4]", "value": 58.1, "unit": "µM"}, {"measurement": "IC50", "setting": "[5]", "value": 5.7, "unit": "µM"}, {"measurement": "IC50", "setting": "[8]", "value": 6.1, "unit": "µM"}, {"measurement": "IC50", "setting": "[6]", "value": 5.6, "unit": "µM"}, {"measurement": "IC50", "setting": "[7]", "value": 9.7, "unit": "µM"}]}, {"smiles": "NC1CCCCC1N.[Cl][Pt][Cl]", "note": "(stereo not shown) [Pt(dach)Cl2]", "values": [{"measurement": "IC50", "setting": "[1]", "value": 13.8, "unit": "µM"}, {"measurement": "IC50", "setting": "[2]", "value": 3.7, "unit": "µM"}, {"measurement": "IC50", "setting": "[3]", "value": 0.5, "unit": "µM"}, {"measurement": "IC50", "setting": "[4]", "value": 22.3, "unit": "µM"}, {"measurement": "IC50", "setting": "[5]", "value": 3.4, "unit": "µM"}, {"measurement": "IC50", "setting": "[8]", "value": 2.1, "unit": "µM"}, {"measurement": "IC50", "setting": "[6]", "value": 8.5, "unit": "µM"}, {"measurement": "IC50", "setting": "[7]", "value": 14.7, "unit": "µM"}]}, {"smiles": "N[C@@H]1CCCC[C@H]1N.O=C1[O][Pt]([OH])([OH])[O]C(=O)C12CCC2", "note": "(mixture of isomers) [Comparative Example 6, trans,cis,cis-[Pt(OH)2(R,R-dach) (cbdc)]]", "values": [{"measurement": "IC50", "setting": "[2]", "value": "> 100", "unit": "µM"}, {"measurement": "IC50", "setting": "[4]", "value": "> 100", "unit": "µM"}, {"measurement": "IC50", "setting": "[8]", "value": 79.4, "unit": "µM"}, {"measurement": "IC50", "setting": "[6]", "value": "> 100", "unit": "µM"}]}]}
